Our source for the pXC50 and % of control values is ChEMBL document CHEMBL5465560, “Selectivity Literature for EUbOPEN Chemogenomic Library” (2024).

A value given as a limit tells only on which side of the number the result lay.

Assay [1] concerns the target T1, Prostaglandin G/H synthase 2 (Homo sapiens) (UniProt P35354).
T1 sequence (whole entry): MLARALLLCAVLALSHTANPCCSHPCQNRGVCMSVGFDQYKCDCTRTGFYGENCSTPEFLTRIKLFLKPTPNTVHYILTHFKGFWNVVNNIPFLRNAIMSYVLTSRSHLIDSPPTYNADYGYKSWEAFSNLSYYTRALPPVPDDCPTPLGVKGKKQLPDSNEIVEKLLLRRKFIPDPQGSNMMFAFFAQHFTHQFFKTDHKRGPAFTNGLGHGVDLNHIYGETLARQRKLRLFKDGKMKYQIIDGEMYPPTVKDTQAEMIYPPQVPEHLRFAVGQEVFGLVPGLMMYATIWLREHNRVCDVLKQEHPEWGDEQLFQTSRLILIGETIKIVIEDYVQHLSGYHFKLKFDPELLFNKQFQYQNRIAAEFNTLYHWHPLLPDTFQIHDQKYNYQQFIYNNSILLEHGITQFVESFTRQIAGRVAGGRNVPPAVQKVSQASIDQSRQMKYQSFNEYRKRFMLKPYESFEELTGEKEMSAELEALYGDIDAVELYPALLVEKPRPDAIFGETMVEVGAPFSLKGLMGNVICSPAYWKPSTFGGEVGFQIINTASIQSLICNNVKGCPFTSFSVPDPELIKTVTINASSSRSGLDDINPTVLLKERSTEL
In words: Selectivity interaction (Panel of kinases, GPCRs, ion channels and transporters (enzymatic assay)) EUB0000266bCl PTGS2.

In assay [2] the target is Serine/threonine-protein kinase Nek6 (Homo sapiens) (UniProt Q9HC98). The note with it: at 10 µM.
Serine/threonine-protein kinase Nek6 (Homo sapiens), sequence (Q9HC98 whole entry): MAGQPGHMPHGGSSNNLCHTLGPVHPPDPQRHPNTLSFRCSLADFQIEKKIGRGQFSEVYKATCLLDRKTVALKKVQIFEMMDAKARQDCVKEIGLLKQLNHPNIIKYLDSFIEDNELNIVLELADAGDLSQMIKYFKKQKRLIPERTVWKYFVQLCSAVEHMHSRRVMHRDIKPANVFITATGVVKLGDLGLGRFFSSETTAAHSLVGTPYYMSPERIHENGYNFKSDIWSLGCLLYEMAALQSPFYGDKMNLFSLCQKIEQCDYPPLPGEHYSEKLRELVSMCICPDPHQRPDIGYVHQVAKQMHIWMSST
In assay [3] the target is T2, Serine/threonine-protein kinase Nek1 (Homo sapiens) (UniProt Q96PY6).
T2 sequence (whole entry): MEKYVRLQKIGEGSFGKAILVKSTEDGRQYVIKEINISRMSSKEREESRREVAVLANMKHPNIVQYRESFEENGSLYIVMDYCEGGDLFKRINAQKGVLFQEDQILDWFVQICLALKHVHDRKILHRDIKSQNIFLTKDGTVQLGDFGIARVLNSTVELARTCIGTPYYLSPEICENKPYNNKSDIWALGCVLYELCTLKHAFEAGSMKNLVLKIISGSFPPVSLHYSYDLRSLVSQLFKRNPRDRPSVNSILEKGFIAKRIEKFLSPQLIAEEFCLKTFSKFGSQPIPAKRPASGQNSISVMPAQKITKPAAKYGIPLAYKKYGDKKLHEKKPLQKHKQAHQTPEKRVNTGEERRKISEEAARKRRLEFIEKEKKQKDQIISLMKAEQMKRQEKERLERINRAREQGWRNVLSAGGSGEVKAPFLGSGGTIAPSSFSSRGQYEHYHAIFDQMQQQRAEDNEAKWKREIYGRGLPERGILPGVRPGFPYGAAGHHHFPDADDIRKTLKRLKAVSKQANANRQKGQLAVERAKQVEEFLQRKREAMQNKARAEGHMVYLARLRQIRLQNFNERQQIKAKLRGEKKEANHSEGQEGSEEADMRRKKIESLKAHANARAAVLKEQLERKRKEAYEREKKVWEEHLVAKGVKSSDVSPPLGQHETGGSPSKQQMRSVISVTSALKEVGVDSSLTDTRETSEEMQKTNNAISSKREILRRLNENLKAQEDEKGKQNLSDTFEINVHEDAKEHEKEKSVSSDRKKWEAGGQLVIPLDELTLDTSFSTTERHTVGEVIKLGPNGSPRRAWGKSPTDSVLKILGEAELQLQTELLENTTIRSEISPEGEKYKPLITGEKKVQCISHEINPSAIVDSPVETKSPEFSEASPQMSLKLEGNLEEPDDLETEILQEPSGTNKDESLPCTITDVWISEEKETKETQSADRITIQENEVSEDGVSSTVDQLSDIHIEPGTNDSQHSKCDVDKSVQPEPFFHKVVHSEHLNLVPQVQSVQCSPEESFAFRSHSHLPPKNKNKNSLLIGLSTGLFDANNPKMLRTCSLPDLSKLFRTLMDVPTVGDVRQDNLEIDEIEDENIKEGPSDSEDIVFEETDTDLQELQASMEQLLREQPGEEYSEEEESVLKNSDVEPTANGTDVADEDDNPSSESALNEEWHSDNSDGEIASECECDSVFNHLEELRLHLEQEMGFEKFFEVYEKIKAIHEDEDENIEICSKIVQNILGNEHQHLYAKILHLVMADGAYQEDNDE
In words: Selectivity interaction (KinomeScan (DiscoverX)) EUB0000695a NEK1. To be noted: at 100 nM.

Assay [4] deals with Ribosomal protein S6 kinase alpha-4 (Homo sapiens) (UniProt O75676). In words: Selectivity interaction (KinomeScan (DiscoverX)) EUB0000666a RPS6KA4. The note with it: at 10 µM.
Ribosomal protein S6 kinase alpha-4 (Homo sapiens), sequence (O75676 whole entry, looked up): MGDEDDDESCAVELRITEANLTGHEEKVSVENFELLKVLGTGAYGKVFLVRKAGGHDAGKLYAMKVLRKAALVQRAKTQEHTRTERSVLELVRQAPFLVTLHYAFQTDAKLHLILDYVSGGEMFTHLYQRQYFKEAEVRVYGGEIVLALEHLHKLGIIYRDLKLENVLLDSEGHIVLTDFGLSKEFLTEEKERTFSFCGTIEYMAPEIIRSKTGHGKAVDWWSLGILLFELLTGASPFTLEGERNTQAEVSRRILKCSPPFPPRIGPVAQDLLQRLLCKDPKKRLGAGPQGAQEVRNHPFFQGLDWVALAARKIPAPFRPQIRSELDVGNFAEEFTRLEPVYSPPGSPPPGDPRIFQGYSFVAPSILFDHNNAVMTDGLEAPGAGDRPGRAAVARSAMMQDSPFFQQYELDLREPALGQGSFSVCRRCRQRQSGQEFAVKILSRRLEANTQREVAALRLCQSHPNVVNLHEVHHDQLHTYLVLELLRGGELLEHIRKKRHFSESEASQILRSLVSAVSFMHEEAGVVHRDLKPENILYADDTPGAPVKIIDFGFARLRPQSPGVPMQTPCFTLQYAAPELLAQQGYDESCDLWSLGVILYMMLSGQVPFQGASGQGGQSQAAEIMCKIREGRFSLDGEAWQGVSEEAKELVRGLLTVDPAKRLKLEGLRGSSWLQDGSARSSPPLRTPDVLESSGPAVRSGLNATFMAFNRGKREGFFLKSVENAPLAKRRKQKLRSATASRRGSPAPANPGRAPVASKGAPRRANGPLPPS
Assay [5] deals with T3, Serine/threonine-protein kinase ULK1 (Homo sapiens) (UniProt O75385).
T3 sequence (whole entry): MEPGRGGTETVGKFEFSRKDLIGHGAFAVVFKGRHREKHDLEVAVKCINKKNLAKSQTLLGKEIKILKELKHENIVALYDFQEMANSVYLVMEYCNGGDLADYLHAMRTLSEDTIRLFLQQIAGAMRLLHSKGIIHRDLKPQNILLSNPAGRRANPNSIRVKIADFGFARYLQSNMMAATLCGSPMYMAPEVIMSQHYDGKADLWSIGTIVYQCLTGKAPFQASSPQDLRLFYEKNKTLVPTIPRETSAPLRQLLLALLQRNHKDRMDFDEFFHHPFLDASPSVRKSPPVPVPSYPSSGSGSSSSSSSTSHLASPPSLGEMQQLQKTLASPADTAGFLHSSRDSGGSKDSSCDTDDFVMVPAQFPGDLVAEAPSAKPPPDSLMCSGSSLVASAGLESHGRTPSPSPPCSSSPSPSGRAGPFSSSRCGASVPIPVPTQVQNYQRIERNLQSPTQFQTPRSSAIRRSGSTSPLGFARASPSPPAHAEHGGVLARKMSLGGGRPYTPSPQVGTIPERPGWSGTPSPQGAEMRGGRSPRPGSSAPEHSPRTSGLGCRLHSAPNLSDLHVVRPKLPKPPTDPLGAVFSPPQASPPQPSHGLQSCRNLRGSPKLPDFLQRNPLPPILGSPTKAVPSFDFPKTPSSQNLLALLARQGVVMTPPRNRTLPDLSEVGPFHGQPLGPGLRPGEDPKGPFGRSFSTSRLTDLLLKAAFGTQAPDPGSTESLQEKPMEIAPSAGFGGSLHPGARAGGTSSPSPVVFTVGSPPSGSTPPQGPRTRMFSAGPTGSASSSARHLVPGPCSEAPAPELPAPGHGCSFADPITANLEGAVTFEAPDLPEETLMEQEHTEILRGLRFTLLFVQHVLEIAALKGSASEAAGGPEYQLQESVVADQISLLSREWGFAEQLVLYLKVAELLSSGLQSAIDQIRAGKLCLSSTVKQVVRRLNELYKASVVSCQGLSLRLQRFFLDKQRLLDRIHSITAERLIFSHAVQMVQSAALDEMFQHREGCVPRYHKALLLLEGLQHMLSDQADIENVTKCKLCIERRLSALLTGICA
The assay is described as follows: Selectivity interaction (KinomeScan (DiscoverX)) EUB0001619a ULK1. The note with it: at 1 µM.

Regarding `CCn1c(-c2nc3cc(C(=O)N4CCCC(N)C4)ccc3n2C)cc2ccccc21` (stereo not given), the pXC50 in assay [1] was below 4 M.

In the case of `CCN(CC)CCCCNc1ncc2cc(-c3cc(OC)cc(OC)c3)c(NC(=O)NC(C)(C)C)nc2n1`, the % of control in assay [2] worked out at 100%.

On to `Cc1cc(F)c(C(=O)Nc2cccc(-c3nncn3C(C)C)n2)cc1-n1cnc(C2CC2)c1`, for which the % of control in assay [3] is 100%.

In assay [4], `O=C(NOC[C@H](O)CO)c1ccc(F)c(F)c1Nc1ccc(I)cc1F` had a % of control of 100%.

In assay [5], `N#Cc1cccc(-c2c[nH]c3ncnc(N4CCOCC4)c23)c1` registered a % of control of 65%.
